Reference: patent US20200079786A1, “ANALOGS OF […] AS SOLUBLE EPOXIDE HYDROLASE INHIBITORS” (UNIVERSITAT DE BARCELONA, priority 2015, published 2020)

Tests used:
[1] = Determination of water solubility (nephelometry); format: physicochemical; details: aqueous with cosolvent or surfactant or cyclodextrin, kinetic from dmso stock; 5% DMSO: 95% PBS buffer, 37° C., read after 2 and 4 h; read-out: S (solubility)
[2] = Determination of cytotoxicity in THLE-2 cells (ATP viability); format: cell-based; details: human; THLE-2 cells, 72 h exposure, 0-100 μM; read-out: LC50 (μM), cytotoxicity
Description: Cytotoxic effects of assayed compounds were tested using the immortalized human liver cell line THLE-2 (ATCC CRL-2706). Cells were cultured in BEGM medium (Clonetics # CC-4175) containing all the supplements kit except additional EGF and G418. Medium was completed by adding 0.7 μg/mL phosphoethanolamine, 0.5 ng/mL epidermal growth factor, antibiotics (penicillin and streptomycin) and 10% fetal bovine serum (FBS).
Cells were plated in 96-well black microplates at 10,000 cells/well density and were incubated at 37° C. (5% CO2, 95% humidity) for 24 h to allow the cells to adhere and form a monolayer. Test compounds were solubilized in 100% DMSO at a concentration curve way and then diluted with cell culture medium containing 10% DMSO. The final concentrations of the test compounds (1% DMSO) ranged from 0-100 μM in a final volume of 200 μL. Microplates were maintained at 37° C. (5% CO2, 95% humidity) during 3 days. Following this 72 h exposure to test compounds, cell viability in each well was determined by measuring the concentration of cellular adenosine triphosphate (ATP) using the ATP1Step Kit as described by the manufacturer (Perkin-Elmer). In a typical procedure, 50 μL of cell reagent is added to all wells of each test plate followed by incubation for 10 min at room temperature on an orbital shaker. ATP concentration was determined by reading chemical luminescence using the Envision plate reader (PerkinElmer). The percentage of viable cells relative to the non-drug treated controls was determined for each well and LC50 values were calculated as concentrations projected to kill 50% of the cells following a 72 h exposure, an average of minimum two independent replicates.

[3] = Parallel artificial membrane permeation assay for blood-brain barrier (PAMPA-BBB); format: in vitro ADME, porcine; details: PBS:EtOH (70:30)
Description: The in vitro permeability (Pe) of the test compounds through lipid extract of porcine brain membrane was determined. Assayed compounds were tested using a mixture of PBS:EtOH (70:30). […] From this equation and taking into account the limits established by Di et al. for BBB permeation, the ranges of permeability were established, as follows.

[4] = biological target: T1, CYP1A2 (Homo sapiens, UniProt P05177); assay: Inhibition of human cytochrome P450 CYP1A2; format: in vitro ADME; details: human cytochrome P450 enzyme
T1 sequence (P05177 1-516): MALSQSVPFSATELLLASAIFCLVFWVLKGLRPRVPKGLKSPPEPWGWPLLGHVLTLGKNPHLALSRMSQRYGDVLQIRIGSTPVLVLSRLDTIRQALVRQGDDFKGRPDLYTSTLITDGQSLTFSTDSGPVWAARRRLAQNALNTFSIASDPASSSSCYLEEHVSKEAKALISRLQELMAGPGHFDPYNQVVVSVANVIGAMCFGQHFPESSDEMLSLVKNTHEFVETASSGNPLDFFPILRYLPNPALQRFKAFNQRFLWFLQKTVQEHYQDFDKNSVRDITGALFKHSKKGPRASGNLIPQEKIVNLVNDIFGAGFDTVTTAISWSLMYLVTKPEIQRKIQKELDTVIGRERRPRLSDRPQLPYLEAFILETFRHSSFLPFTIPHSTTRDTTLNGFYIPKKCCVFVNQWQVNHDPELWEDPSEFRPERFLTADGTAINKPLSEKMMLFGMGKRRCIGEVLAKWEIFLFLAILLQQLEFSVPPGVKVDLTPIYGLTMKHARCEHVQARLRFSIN
Excerpt: (§1) The epoxidation of arachidonic acid (AA) by selected cytochrome P450 epoxygenases generates epoxyeicosatrienoic acids (EETs). These EETs show anti-inflammatory, antihypertensive, analgesic, angiogenic, and antiatherosclerotic effects in rodents and humans. sEH converts EETs to their corresponding dihydroxyeicosatrienoic acids (DHETs), whereby the biological effects of EETs are diminished, eliminated, or altered. Among the P450 enzymes, it is known that CYP2C19 and CYP1A2 have the highest formation rate of EETs from AA (cf. A. A. El-Sherbeni et al. “Repurposing resveratrol and fluconazole to modulate human cytrochrome P450-mediated arachidonic acid metabolites”, Molecular Pharmaceutics 2016, vol. 13, pp. 1278-1288). For this reason, a highly desirable aspect of any new sEH inhibitor is selectivity in front of CYP2C19 and CYP1A2.

[5] = biological target: CYP2C19 (Homo sapiens, UniProt P33261); assay: Inhibition of human cytochrome P450 CYP2C19; format: in vitro ADME; details: human cytochrome P450 enzyme
Excerpt: as §1

[6] = biological target: T2, sEH in AR42j cells (Rattus norvegicus, UniProt P80299); assay: In vitro determination of sEH inhibition activity in AR42j cells (cell-based fluorescent assay); details: AR-42J, read-out: % Inhn. ± SE (100 μM), sEH inhibition activity in cell culture
T2 sequence (P80299 1-554): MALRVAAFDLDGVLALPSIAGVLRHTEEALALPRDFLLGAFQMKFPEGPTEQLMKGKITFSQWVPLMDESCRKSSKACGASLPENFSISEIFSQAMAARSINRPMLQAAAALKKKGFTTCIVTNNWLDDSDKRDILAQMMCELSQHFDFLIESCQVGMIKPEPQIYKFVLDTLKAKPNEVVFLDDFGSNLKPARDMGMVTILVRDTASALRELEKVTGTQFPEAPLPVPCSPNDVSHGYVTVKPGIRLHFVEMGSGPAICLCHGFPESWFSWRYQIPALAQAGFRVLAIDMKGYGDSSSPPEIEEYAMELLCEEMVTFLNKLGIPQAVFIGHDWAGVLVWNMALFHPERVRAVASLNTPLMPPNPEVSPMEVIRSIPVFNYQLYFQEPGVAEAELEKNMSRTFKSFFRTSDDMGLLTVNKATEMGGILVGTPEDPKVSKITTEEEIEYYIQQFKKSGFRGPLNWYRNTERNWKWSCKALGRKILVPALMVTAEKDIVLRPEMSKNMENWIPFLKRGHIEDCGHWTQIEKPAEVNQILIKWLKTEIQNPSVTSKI
Description: Solutions Preparation: • Assay buffer 1×: add 10 mL of the CBA-Buffer (10×) to 90 mL of distilled water. • Lysis Buffer: add 50 μL of the CBA Digitonin Solution to 10 mL of Buffer Assay 1×. • Substrate Solution: dilute 10 μL of CBA sEH Substrate with 10 mL of Assay Buffer 1×. • Standards: preparation of 7 concentrations of CBA 6-methoxy-2-naphtalaldehyde from 0 until 2 M with Assay Buffer 1×. • sEH Positive Control: Prepare another stock A (1 μg/ml: 1 μL CBA sEH Positive Control+1 mL Assay Buffer 1×). From the already prepared stock A, prepare 250 μL of sEH (10 ng/mL): 2.5 μL sEH stock A+250 μL Assay Buffer 1×). • sEH Inhibitor AUDA: dilute 10 μL CBA sEH Inhibitor with 500 ml Assay Buffer 1×. • Inhibitors dissolved in DMSO at appropriated concentrations.
Seed cells in a 96-well plate at a density of (2×10^4)-(5×10^4) cells/well in 100 μL of culture medium with or without compounds to be tested. Incubation of the cells in a CO2 incubator at 37° C. for 48 hours. Aspirate the culture medium and add 200 μL of Assay Buffer 1× to each well. Centrifuge the plate at 800 rmp for 5 minutes. Aspirate the supernatant and add 100 μL of Lysis Buffer to each well. Incubate with gentle shaking on an orbital shaker for 30 minutes at room temperature. Centrifuge the plate at 3000 rpm for 20 minutes at 4° C. Transfer 90 μL of the supernatants to the 96-Well Solid Plate (black). Add 10 μL Assay Buffer 1× or 10 μL of the AUDA solution to appropriate wells. For positive control wells, add 100 μL of the 10 ng/mL sEH Positive Control to two wells. Add 200 μL of 6-methoxy-2-Naphthaldehyde Standards to corresponding wells of the black plate. Add 100 μL of the sEH Substrate Solution to each well, except the standards. Incubate the plate at 37° C. for 30 minutes. […] The intensity of fluorescence was used to analyze and calculate inhibition percentages, shown in the Table as average of minimum three independent replicates.

Chain of CYP2C19 (P33261 whole entry): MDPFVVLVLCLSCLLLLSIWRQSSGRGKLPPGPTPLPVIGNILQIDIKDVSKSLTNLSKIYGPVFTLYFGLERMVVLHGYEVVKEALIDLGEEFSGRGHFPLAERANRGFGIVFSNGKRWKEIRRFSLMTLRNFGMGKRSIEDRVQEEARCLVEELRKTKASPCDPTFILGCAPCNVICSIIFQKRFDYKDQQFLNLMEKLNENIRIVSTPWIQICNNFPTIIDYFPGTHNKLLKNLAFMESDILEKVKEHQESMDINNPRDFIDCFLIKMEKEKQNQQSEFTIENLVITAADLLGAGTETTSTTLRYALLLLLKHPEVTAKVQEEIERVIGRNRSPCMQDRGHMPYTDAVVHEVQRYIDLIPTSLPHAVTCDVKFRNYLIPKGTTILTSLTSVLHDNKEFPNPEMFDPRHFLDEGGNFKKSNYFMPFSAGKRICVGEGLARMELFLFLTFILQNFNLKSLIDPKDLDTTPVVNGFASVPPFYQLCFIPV

O=C(N[C@]12CC3C[C@@H](C[C@H](C3)O1)C2)N[C@H]1CC[C@H](Oc2ccc(C(=O)O)cc2)CC1 [Ig, trans-1-(2-oxaadamantan-1-yl)-3-[4-(4-carboxyphenoxy)cyclohexyl]urea]
solubility [1]: > 100 µM
CC50 at 72 h [2]: > 100 µM
CNS prediction [3]: CNS+ (Compounds of high BBB permeation (CNS+): Pe (10^6 cm s^−1)>5.181)
inhibition at 1 µM [4]: ≤ 6%
inhibition at 1 µM [5]: ≤ 6%
inhibition at 100 µM [6]: 58.3 ± 3.2%
